According to ChEMBL document CHEMBL1140075 (J Med Chem, 2008):
Calls of active or inactive are those of the source. The rule behind the calls is not given here. Positions of bridges follow the written chain, without caps; N, C: chain ends. Residues, ends and D or L forms follow the SMILES beside them.

Legend:
[1] = physchem; details: solution with 500 uM reduced glutathione
[2] = Stability assessed as half life of native globular conformation state in presence of reduced glutathione at 500 uM; assay type: physicochemical; details: solution with 500 uM reduced glutathione
[3] = biological target: Neuronal acetylcholine receptor subunit alpha-7 (Rattus norvegicus, UniProt Q05941)
Sequence of Neuronal acetylcholine receptor subunit alpha-7 (Q05941 whole entry): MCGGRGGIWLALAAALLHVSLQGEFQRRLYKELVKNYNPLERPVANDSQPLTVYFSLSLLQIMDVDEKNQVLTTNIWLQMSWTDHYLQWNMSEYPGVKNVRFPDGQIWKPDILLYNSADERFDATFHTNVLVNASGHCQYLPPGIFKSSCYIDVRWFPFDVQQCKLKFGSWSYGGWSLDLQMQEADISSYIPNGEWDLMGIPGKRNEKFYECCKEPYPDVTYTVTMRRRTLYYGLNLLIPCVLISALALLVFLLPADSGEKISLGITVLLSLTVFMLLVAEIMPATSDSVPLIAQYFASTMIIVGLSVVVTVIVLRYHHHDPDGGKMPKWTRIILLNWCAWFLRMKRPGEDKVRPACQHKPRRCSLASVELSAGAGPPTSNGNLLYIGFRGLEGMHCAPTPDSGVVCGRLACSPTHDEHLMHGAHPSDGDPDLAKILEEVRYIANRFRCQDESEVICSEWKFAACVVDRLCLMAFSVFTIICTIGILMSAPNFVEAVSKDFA

[4] = biological target: Neuronal acetylcholine receptor subunit alpha-7 (Rattus norvegicus) (UniProt Q05941); assay: Activity at rat alpha7 nAChR expressed in Xenopus laevis assessed as inhibition of acetylcholine-induced current at holding potential of -80 mV up to 10 uM by two-electrode voltage clamp technique
Sequence of Neuronal acetylcholine receptor subunit alpha-7 (Rattus norvegicus) (Q05941 whole entry): as above

[5] = biological target: Acetylcholine-binding protein (Lymnaea stagnalis, UniProt P58154)
Sequence of Acetylcholine-binding protein (P58154 whole entry): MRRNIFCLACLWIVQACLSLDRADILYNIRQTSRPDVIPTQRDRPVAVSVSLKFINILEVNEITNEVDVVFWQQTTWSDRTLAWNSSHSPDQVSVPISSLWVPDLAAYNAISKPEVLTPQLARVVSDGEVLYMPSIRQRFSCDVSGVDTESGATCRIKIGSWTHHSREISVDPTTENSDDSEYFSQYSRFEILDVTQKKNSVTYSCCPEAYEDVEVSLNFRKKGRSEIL

[6] = Stability assessed as native globular conformation level in presence of reduced glutathione at 500 uM at 24 hrs; assay type: physicochemical; details: solution with 500 uM reduced glutathione; read-out: Stability
[7] = Stability assessed as loss of native globular conformation level in presence of reduced glutathione at 500 uM at 2 hrs; assay type: physicochemical; details: solution with 500 uM reduced glutathione; read-out: Activity
[8] = biological target: Neuronal acetylcholine receptor subunit alpha-7 (Rattus norvegicus) (UniProt Q05941); assay: Activity at rat alpha7 nAChR expressed in Xenopus laevis assessed as inhibition of acetylcholine-induced current at holding potential of -80 mV up to 1 uM by two-electrode voltage clamp technique

Row | SMILES | remaining at 8 h, 500 µM [1] [%] | half-life [2] [h] | IC50 [3] [nM] | Activity [4] | Ki [5] [nM] | remaining at 24 h [6] [%] | degraded at 2 h [7] [%] | Activity [8]
1 | CC(C)C[C@@H]1NC(=O)[C@H](C)NC(=O)[C@@H]2CSSC[C@H](NC(=O)CN)C(=O)N[C@@H](CSSC[C@@H](C(=O)O)NC(=O)[C@H](CC(=O)O)NC(=O)[C@@H]3CCCN3C(=O)[C@H](CC(N)=O)NC(=O)[C@H](CC(N)=O)NC1=O)C(=O)N[C@@H](CO)C(=O)N[C@@H](CC(C)C)C(=O)N1CCC[C@H]1C(=O)N1CCC[C@H]1C(=O)N2 (H-GCCSLPPCALNNPDC-OH; disulfide 2-8, 3-15) | 40 | 2 | 115 | inactive | 3100 |  |  | 
2 | CC(C)C[C@@H]1NC(=O)[C@H](C)NC(=O)[C@@H]2CSSC[C@H](NC(=O)CN)C(=O)N[C@@H](CSSC[C@@H](C(=O)O)NC(=O)[C@H](CC(N)=O)NC1=O)C(=O)N[C@@H](CO)C(=O)N[C@@H](CC(C)C)C(=O)N1CCC[C@H]1C(=O)N[C@@H](CCCNC(=N)N)C(=O)N2 (H-GCCSLPRCALNC-OH; disulfide 2-8, 3-12) |  | 1 |  | inactive |  | 40 |  | 
3 | CC(C)C[C@@H]1NC(=O)[C@H](C)NC(=O)[C@@H]2CSSC[C@H](NC(=O)CN)C(=O)N[C@@H](CSSC[C@@H](C(=O)O)NC(=O)[C@@H]3CCCN3C(=O)[C@H](CC(N)=O)NC(=O)[C@H](CC(N)=O)NC1=O)C(=O)N[C@@H](CO)C(=O)N[C@@H](CC(C)C)C(=O)N1CCC[C@H]1C(=O)N1CCC[C@H]1C(=O)N2 (H-GCCSLPPCALNNPC-OH; disulfide 2-8, 3-14) |  | < 0.5 | 79 |  | 4600 |  | > 80 | 
4 | CC(C)C[C@@H]1NC(=O)[C@H](C)NC(=O)[C@@H]2CSSC[C@H](NC(=O)CN)C(=O)N[C@@H](CSSC[C@@H](C(=O)O)NC(=O)[C@H](CC(N)=O)NC1=O)C(=O)N[C@@H](CO)C(=O)N[C@@H](CC(C)C)C(=O)N1CCC[C@H]1C(=O)N1CCC[C@H]1C(=O)N2 (H-GCCSLPPCALNC-OH; disulfide 2-8, 3-12) |  | < 0.5 | > 10000 |  | 7900 |  | > 80 | inactive
5 | CC(C)C[C@@H]1NC(=O)[C@H](C)NC(=O)[C@@H]2CSSC[C@H](NC(=O)CN)C(=O)N[C@@H](CSSC[C@@H](C(=O)O)NC(=O)[C@H](CC(N)=O)NC(=O)[C@H](CC(N)=O)NC1=O)C(=O)N[C@@H](CO)C(=O)N[C@@H](CC(C)C)C(=O)N1CCC[C@H]1C(=O)N1CCC[C@H]1C(=O)N2 (H-GCCSLPPCALNNC-OH; disulfide 2-8, 3-13) |  | < 0.5 | 207 |  | 4500 |  | > 80 | 
6 | CC(C)C[C@@H]1NC(=O)[C@H](CO)NC(=O)[C@@H]2CSSC[C@@H](C(=O)O)NC(=O)[C@H](Cc3ccc(O)cc3)NC(=O)[C@H](CC(=O)O)NC(=O)[C@@H]3CCCN3C(=O)[C@H](CC(N)=O)NC(=O)[C@H](CC(N)=O)NC(=O)[C@H](C)NC(=O)[C@H](C)NC(=O)[C@H](CSSC[C@H](NC(=O)CN)C(=O)N2)NC(=O)[C@@H]2CCCN2C(=O)[C@@H]2CCCN2C1=O (H-GCCSLPPCAANNPDYC-OH; disulfide 2-8, 3-16) |  |  | 252 |  | 124 |  |  | 
